Measured values taken from ChEMBL document CHEMBL6087393, “Sensitive quantification of fibroblast activation protein and high-throughput screening for inhibition by FDA-approved compounds” (Eur J Med Chem, 2024).
pIC50: −log10 of the molar value.

Columns and labels:
[1] = target: T1, Prolyl endopeptidase FAP (Homo sapiens, UniProt Q12884); assay: Inhibition of recombinant human FAP extracted from S2 cells using fluorogenic FAP as specific substrate measured after 10 mins incubation by 7-amino-4-methylcoumarin in assay
T1 sequence (Q12884 whole entry): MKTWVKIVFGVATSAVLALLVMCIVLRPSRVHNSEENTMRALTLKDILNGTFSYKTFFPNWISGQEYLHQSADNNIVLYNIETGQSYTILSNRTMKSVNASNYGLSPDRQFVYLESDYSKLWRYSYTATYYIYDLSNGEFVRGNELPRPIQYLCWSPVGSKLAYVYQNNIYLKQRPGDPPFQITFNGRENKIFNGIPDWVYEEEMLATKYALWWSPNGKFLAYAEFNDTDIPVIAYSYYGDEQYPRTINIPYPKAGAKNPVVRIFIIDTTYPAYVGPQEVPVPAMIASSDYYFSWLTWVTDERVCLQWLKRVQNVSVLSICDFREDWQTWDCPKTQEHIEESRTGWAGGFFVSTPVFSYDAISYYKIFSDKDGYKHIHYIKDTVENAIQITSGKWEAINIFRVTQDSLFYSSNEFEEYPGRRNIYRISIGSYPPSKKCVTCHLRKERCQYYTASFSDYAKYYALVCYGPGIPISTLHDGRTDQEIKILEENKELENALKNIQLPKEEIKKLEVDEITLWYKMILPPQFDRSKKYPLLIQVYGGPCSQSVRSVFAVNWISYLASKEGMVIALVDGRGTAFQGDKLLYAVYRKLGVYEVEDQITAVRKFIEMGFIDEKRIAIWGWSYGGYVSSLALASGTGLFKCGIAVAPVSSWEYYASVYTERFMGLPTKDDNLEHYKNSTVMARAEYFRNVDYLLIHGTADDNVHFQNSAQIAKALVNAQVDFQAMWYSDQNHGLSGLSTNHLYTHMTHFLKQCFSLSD

[2] = clinical; conditions: human

| Cmax [2] [nM] | Compound | pIC50 [1] |
| --- | --- | --- |
|  | Nc1ncnc2c1ncn2CCOCP(=O)(O)O [ADEFOVIR] | < 4.00 |
| 1200 | Cc1cc2ncc(C(=O)NCC(C)(C)NCC(=O)N3CCC[C@H]3C#N)cn2n1 [ANAGLIPTIN] |  |
| 12 | CC#CCn1c(N2CCC[C@@H](N)C2)nc2c1c(=O)n(Cc1nc(C)c3ccccc3n1)c(=O)n2C [LINAGLIPTIN] |  |
|  | C[C@H](Cn1cnc2c(N)ncnc21)OCP(=O)(O)O [TENOFOVIR ANHYDROUS] | < 4.00 |
